Test results taken from patent publication US9221914B2, “Agents targeting CD138 and uses thereof” (BIOTEST AG, priority 2007, dated 2015).

What was measured:
[1] = tested on: MOLP-8 tumor xenografts; assay: Bulky MOLP-8 tumor xenograft model in SCID mice (Part II / Xenograft Mouse Experiments B); type: in vivo; details: 450 μg/kg dose; mean time to reach 160 mm^3 minus mean time of control group
Experimental: In a second set of experiments, MOLP-8 cells (1.5×10^7 cells per mouse), suspended in a 50:50 mixture of serum free media and matrigel were injected subcutaneously in the area under the right shoulder in 100 μl. […] Each mouse in the control group (n=6) received 0.2 ml of sterile PBS administered into the lateral tail vein (i.v.) in a bolus injection. All treatment doses were based on conjugated maytansinoid. […] Mice were randomized into eleven groups (n=6) by tumor volume using the LabCat Program. […] The mice were dosed based on the individual body weight.
(§1) Tumor size was measured twice per week in three dimensions using the LabCat System (Tumor Measurement and Tracking, Innovative Programming Associated, Inc., Princeton, N.J.). The tumor volume in mm^3 was calculated using the methodology described in Tomayko et al., Cancer Chemother.
In this set of experiments, eighty-five mice were inoculated with MOLP-8 cells (1.5×10^7 cells/mouse) subcutaneously in the right shoulder.

[2] = tested on: MOLP-8 human multiple myeloma xenografts; assay: MOLP-8 human multiple myeloma xenograft in CB.17 SCID mice (Xenograft Mouse Experiments A, Part I); type: in vivo
Experimental: In these mice, subcutaneous tumors were established (female CB.17 SCID mice) by inoculation with MOLP-8 cell suspensions. Treatment with a single bolus intravenous injection was conducted when tumor volumes reached an average 113 mm^3. Changes in tumor volume and body weight were monitored twice per week.
Female CB.17 SCID mice, five weeks old, were obtained from Charles River Laboratories.
MOLP-8, a human multiple myeloma cell line, was supplied from ATCC.
Each mouse was inoculated with 1×10^7 MOLP-8 cells subcutaneously into the area under the right shoulder. The total volume was 0.2 ml per mouse, in which the ratio of serum-free medium to matrigel (BD Bioscience, Bedford, Mass.) was 1/1 (v/v). Prior to treatment, the xenograft tumors were monitored daily and were allowed to become established.
Eleven days after tumor cell inoculation, 42 mice were selected based on tumor volumes and body weights. […] The forty-two mice were randomly divided into seven groups (A-G) of six animals each based on tumor volume.
Each of six mice in Group A received 200 μl of PBS as vehicle control.
All agents were intravenously administered as a single bolus injection through a lateral tail vein with a 1 ml syringe fitted with a 27 gauge, ½ inch needle.
as §1

| Substance | TGD (days), tumor growth delay [1] [days] | homogeneity of anti-tumor activity in individual mice ([2]; 250 μg/kg single i.v. dose) | median tumor volume over time post-inoculation ([2]; 250 μg/kg single i.v. dose, data not shown) | effect on tumor growth compared with PBS-treated animals ([2]; single i.v. bolus, 250 μg/kg (nBT062 antibody […])) |
| --- | --- | --- | --- | --- |
| nBT062-DM1: nBT062 conjugate with DM1, linker not stated at this place; TGD matches nBT062-SMCC-DM1 | 18 |  |  |  |
| B-B4-SPP-DM1 [reference compound] |  | more heterogeneously and therefore less predicable | relatively better results for B-B4-SPP-DM1 than for nBT062-SPP-DM1 | marked delay in tumor growth |
